Data on one compound can be found in patent publication US20080220977A1, “Computational strategy for discovering druggable gene networks from genome-wide RNA expression profiles” (GNI Ltd., priority 2005, published 2008).

This test relates to human endothelial cells. The experiment in a line: Fenofibrate time-course microarray in human endothelial cells, GO Term Finder clusters of selected genes. Particulars: 25 μM fenofibrate, 18 hours microarray.

For `CC(C)OC(=O)C(C)(C)Oc1ccc(C(=O)c2ccc(Cl)cc2)cc1` [fenofibrate], where the note is “overexpressed genes”, the “# genes in GO annotation: cellular lipid metabolism (GO:0044255)” value was determined as 21, the “# genes in GO annotation: cholesterol biosynthesis (GO:0006695)” value was determined as 5, the “# genes in GO annotation: cholesterol metabolism (GO:0008203)” value was found to be 7 and the “# genes in GO annotation: lipid metabolism (GO:0006629)” value amounted to 25. For the same compound, under “overexpressed genes”, the “# genes in GO annotation: steroid biosynthesis (GO:0006694)” value was determined as 7, the “# genes in GO annotation: steroid metabolism (GO:0008202)” value is 10, the “# genes in GO annotation: sterol biosynthesis (GO:0016126)” value came to 6 and the “# genes in GO annotation: sterol metabolism (GO:0016125)” value is on record as 8. Further, for the setting “suppressed genes”, the “# genes in GO annotation: M phase (GO:0000279)” value is 17; the “# genes in GO annotation: M phase of mitotic cell cycle (GO:0000087)” value is 15; the “# genes in GO annotation: RNA splicing, via transesterification reactions (GO:0000375)” value is on record as 9; the “# genes in GO annotation: RNA splicing, via transesterification reactions with bulged adenosine as nucleophile (GO:0000377)” value came to 9. For the same compound, where the note is “suppressed genes”, the “# genes in GO annotation: cell cycle (GO:0007049)” value turned out to be 35, the “# genes in GO annotation: mRNA metabolism (GO:0016071)” value amounted to 13, the “# genes in GO annotation: mitosis (GO:0007067)” value was found to be 15 and the “# genes in GO annotation: mitotic cell cycle (GO:0000278)” value was determined as 19. Where the note is “suppressed genes”, the “# genes in GO annotation: nuclear mRNA splicing, via spliceosome (GO:0000398)” value stood at 9 and the “# genes in GO annotation: regulation of cell cycle (GO:0000074)” value stood at 22.
